Test results as given in patent US6261826A, “Antibiotic TKR2648 and process for producing the same” (Takara Shuzo Co., Ltd., priority 1996, dated 2001).
Converted amounts (≈) assume the structure as drawn. “Also recorded” adds a separate entry of the source.

What was measured:
[1] = system: Aspergillus fumigatus TIMM1776; experiment: Minimal inhibitory concentration, liquid medium dilution method; assay type: cell-based
Experimental: (§1) The antifungal spectra of the above TKR2648 against various microorganisms were determined. Using the liquid medium dilution method, the concentration causing a substantially complete inhibition of fungal growth was determined as minimal inhibitory concentration (μg/ml). In the table, YNBG stands for a medium comprising 0.67% of yeast nitrogen base (manufactured by Difco) and 1.0% of glucose, and BHI stands for a medium comprising 0.5% of brain-heart infusion bouillon (manufactured by Nihon Pharmaceutical).

[2] = system: Candida albicans TIMM0136; experiment: as above; assay type: cell-based
Experimental: as §1

[3] = system: Candida kefyr TIMM0301; experiment: as above; assay type: cell-based
Experimental: as §1

[4] = system: Cryptococcus neoformans TIMM0354; experiment: as above; assay type: cell-based
Experimental: as §1

[5] = system: EL-4 lymphoma cells; experiment: Cytotoxicity to EL-4 lymphoma cells, alamarblue-method; assay type: cell-based
Experimental: (§2) Effect of the above TKR2648 on tumor cells was examined by measuring inhibitory activity of the metastatic ability of tumor cells, which were inoculated into animals after incubation with TKR2648 for several hours. EL-4 lymphoma or B16 melanoma cells were cultured in RPMI 1640 medium containing 10% of fetal calf serum, and various concentrations of TKR2648 were added to the culture of tumor cells. After overnight culture, cytotoxicity of TKR2648 to the cells was determined by alamarblue-method (Biosource International), and the cells treated with TKR2648 were recovered and injected to C57BL/6 (female) mice via tail vein. Ten days after the injection of EL-4, the mice were sacrified and their livers were obtained and weighed to determine metastasizing tumor cells as increase of weight. Fourteen days after the injection of B16 cells, the mice were scarified and their lungs were obtained and counted metastasizing melanoma colonies. […] This means that TKR2648 may be useful as an anticancer agent by inhibiting metastasis properties of tumor cells without affecting of proliferative properties of tumor cells.

[6] = system: B16 melanoma cells; experiment: Cytotoxicity to B16 melanoma cells, alamarblue-method; assay type: cell-based
Experimental: as §2

[7] = system: EL-4 lymphoma cells; experiment: Inhibition of metastasis of treated EL-4 cells injected into mice (liver weight); assay type: in vivo, C57BL/6 (female) mice; settings: for Inhibition of metastasis / Increase of liver weight mean ± SD: ten days after injection; for Increase of liver weight mean ± SD: * p<0.001
Experimental: as §2

[8] = system: B16 melanoma cells; experiment: Inhibition of metastasis of treated B16 cells injected into mice (lung colonies); assay type: in vivo, C57BL/6 (female) mice; settings: for Inhibition of metastasis / Colony number of melanoma mean ± SD: fourteen days after injection; for Colony number of melanoma mean ± SD: lungs
Experimental: as §2

[9] = system: ICR mice; experiment: Toxicity, intraperitoneal administration to mice; assay type: in vivo; settings: 50 mg/kg
[10] = Solubility; assay type: physicochemical
[11] = in words, at concentrations inhibiting metastasis
[12] = EL4 cells treated at 0.156 μg/ml
[13] = EL4 cells treated at 0.313 μg/ml
[14] = EL4 cells treated at 0.625 μg/ml
[15] = in words, at the concentrations showing little cytotoxicity
[16] = B16 cells treated at 0.156 μg/ml
[17] = B16 cells treated at 0.625 μg/ml

CCCCC(=O)OC1CC(OC)=CC(=O)O1 (centres unmarked) [TKR2648]
MIC ([1]; Aspergillus fumigatus, TIMM1776, BHI medium): 6.25 µg/mL (≈ 27.4 µM)
Antifungal activity ([1]; in words): active
MIC ([2]; Candida albicans, TIMM0136, YNBG medium): 100 µg/mL (≈ 438 µM)
Antifungal activity ([2]; in words): active
MIC ([3]; Kluyveromyces marxianus, TIMM0301, YNBG medium): 50 µg/mL (≈ 219 µM)
Antifungal activity ([3]; in words): active
MIC ([4]; Cryptococcus neoformans, TIMM0354, YNBG medium): 3.13 µg/mL (≈ 13.7 µM)
Antifungal activity ([4]; in words): active
cytotoxicity at 0.156 µg/mL ([5]; Mus musculus, EL4, 0.156 μg/ml, overnight culture): 4.5%
cytotoxicity at 0.313 µg/mL ([5]; Mus musculus, EL4, 0.313 μg/ml, overnight culture): 15.7%
cytotoxicity at 0.625 µg/mL ([5]; Mus musculus, EL4, 0.625 μg/ml, overnight culture): 35.1%
Cytotoxicity [5, 11]: little cytotoxicity
cytotoxicity at 0.156 µg/mL ([6]; Mus musculus, B16, 0.156 μg/ml, overnight culture): 4.5%
cytotoxicity at 0.625 µg/mL ([6]; Mus musculus, B16, 0.625 μg/ml, overnight culture): 14.1%
cytotoxicity at 2.5 µg/mL ([6]; Mus musculus, B16, 2.5 μg/ml, overnight culture): 51.3%
Cytotoxicity [6, 11]: little cytotoxicity
Inhibition of metastasis [7, 12]: 47.4%
Increase of liver weight mean ± SD [7, 12]: 0.630 ± 0.107 g
Inhibition of metastasis [7, 13]: 67.4%
Increase of liver weight mean ± SD [7, 13]: 0.391 ± 0.148 g
Inhibition of metastasis [7, 14]: 89.3%
Increase of liver weight mean ± SD [7, 14]: 0.128 ± 0.043 g
Metastasis of EL-4 tumor cells to normal tissues [7, 15]: inhibited metastasis
Inhibition of metastasis [8, 16]: 9.6%
Colony number of melanoma mean ± SD [8, 16]: 58.3 ± 16.3
Inhibition of metastasis [8, 17]: 29.7%
Colony number of melanoma mean ± SD [8, 17]: 45.3 ± 3.8
Inhibition of metastasis ([8]; B16 cells treated at 2.5 μg/ml): 96.4%
Colony number of melanoma mean ± SD ([8]; B16 cells treated at 2.5 μg/ml, * p<0.001): 2.3 ± 2.3
Metastasis of B16 tumor cells to normal tissues [8, 15]: inhibited metastasis
Toxic signs [9]: no toxic signs
Solubility ([10]; in chloroform): Soluble
Solubility ([10]; in hexane): practically insoluble; also recorded: sparingly soluble
Solubility ([10]; in methanol): Soluble
Solubility ([10]; in water): practically insoluble; also recorded: sparingly soluble
